Experimental data: BindingDB's records for PubMed 35695407 (Chinese Academy of Sciences, 2022)

Biological target: T1, Programmed cell death protein 4 (Homo sapiens, UniProt Q53EL6)
T1 sequence (Q53EL6 whole entry): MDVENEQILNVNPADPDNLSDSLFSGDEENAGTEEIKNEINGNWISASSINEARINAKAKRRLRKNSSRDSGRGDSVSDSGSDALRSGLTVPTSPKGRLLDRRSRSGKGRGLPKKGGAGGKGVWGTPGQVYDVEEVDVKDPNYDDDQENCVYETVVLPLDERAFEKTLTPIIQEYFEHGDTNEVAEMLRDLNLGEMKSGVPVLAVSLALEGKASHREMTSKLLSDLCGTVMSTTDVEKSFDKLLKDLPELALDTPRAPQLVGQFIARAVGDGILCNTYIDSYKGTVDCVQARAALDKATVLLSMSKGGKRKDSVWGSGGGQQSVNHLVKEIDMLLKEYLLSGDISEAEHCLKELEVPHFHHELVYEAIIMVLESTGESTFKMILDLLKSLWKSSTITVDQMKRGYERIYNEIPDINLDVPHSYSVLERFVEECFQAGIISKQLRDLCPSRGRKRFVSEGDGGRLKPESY
Test: Inhibition of PDCD4 in human HeLa cells tranfected with pCI-neo-luciferase-PDCD4 3'-UTR plasmid assessed as increase in luciferase activity by luciferase reporter assay

`CCOC(=O)c1nc(-c2ccc(OC)cc2)oc1C` showed an EC50 of 2.25 µM.
